The values that follow come from article PMC6264278, “Corydaline Inhibits Multiple Cytochrome P450 and UDP-Glucuronosyltransferase Enzyme Activities in Human Liver Microsomes” (Molecules, 2011).

One experiment concerns the target T1, UGT1A9 (Homo sapiens, UniProt O60656).
T1 construct: using pooled human liver microsomes; tissue BD Gentest Co. H161; host or cells: pooled human liver microsomes
T1 sequence (O60656 26-530): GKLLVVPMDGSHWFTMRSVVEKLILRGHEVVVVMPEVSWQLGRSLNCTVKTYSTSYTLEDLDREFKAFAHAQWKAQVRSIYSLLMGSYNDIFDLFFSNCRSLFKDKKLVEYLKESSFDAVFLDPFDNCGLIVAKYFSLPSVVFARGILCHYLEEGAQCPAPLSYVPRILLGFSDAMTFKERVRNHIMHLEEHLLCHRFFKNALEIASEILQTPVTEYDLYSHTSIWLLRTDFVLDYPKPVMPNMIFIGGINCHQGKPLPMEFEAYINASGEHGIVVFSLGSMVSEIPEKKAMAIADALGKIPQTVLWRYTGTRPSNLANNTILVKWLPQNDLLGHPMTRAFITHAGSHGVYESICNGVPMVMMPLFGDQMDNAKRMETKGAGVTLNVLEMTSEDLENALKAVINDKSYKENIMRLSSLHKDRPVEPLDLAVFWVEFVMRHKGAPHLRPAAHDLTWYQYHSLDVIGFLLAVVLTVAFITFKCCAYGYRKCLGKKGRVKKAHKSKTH
As to the kind of experiment: UGT1A9 propofol glucuronidation inhibition in pooled human liver microsomes. In kind it is in vitro ADME. As for the experimental part: (§1) The inhibitory potencies (IC50 values) of corydaline were also determined with UGT assays in the presence and absence of corydaline (final concentrations of 1–1,000 μM with acetonitrile concentration less than 0.5% v/v) using pooled human liver microsomes. 17β-Estradiol 3-glucuronidation, trifluoperazine glucuronidation, propofol glucuronidation, and azidothymidine glucuronidation activities were determined as probe activities for UGT1A1, UGT1A4, UGT1A9, and UGT2B7, respectively, using LC/MS/MS. Incubation mixtures were prepared in a total volume of 100 μL, as follows: Pooled human liver microsomes (0.2 mg/mL for 17β-estradiol, trifluoperazine and azidothymidine; 0.1 mg/mL for propofol), 2 mM UDPGA, 25 μg/mL alamethicin, 10 mM MgCl2, 50 mM tris buffer (pH 7.4), UGT-isoform specific probe substrate (20 μM 17β-estradiol for UGT1A1, 5 μM trifluoperazine for UGT1A4, 10 μM propofol for UGT1A9, or 100 μM azidothymidine for UGT2B7), and various concentrations of corydaline (1−1000 μM). Reactions were initiated by addition of UDPGA, and incubations were carried out at 37 °C in a shaking water bath for 30 min. […]
Glucuronides produced from UGT isoform-specific substrates were respectively determined by LC/MS/MS. […] Quantification was performed by SRM of the [M+H]^+ ion for trifluoperazine glucuronide and azidothymidine glucuronide or [M−H]^− for 17β-estradiol 3-glucuronide and propofol glucuronide and the related product ion for each metabolite.
Reactions were initiated by addition of NADPH at 37 °C and stopped after 15 min by placement of the incubation tubes on ice and addition of ice-cold methanol (100 μL) containing an internal standard (2.0 μg/mL ^13C6-4-hydroxydiclofenac for diclofenac, 0.5 μg/mL d3-4-hydroxymephenytoin for mephenytoin, or 0.5 μg/mL d9-1-hydroxy-bufuralol for bufuralol). The incubation mixtures were centrifuged at 13,000 × g for 5 min, and aliquots (5 μL) of the supernatants were analyzed by LC/MS/MS. […] Aliquots (5 μL) were analyzed by LC/MS/MS. […]
For orientation: Liver microsomes are vesicles of endoplasmic reticulum, rich in cytochrome P450 enzymes.

A further experiment deals with T2, UGT2B7 (Homo sapiens, UniProt P16662).
T2 construct: using pooled human liver microsomes; tissue BD Gentest Co. H161; host or cells: pooled human liver microsomes
T2 sequence (P16662 24-529): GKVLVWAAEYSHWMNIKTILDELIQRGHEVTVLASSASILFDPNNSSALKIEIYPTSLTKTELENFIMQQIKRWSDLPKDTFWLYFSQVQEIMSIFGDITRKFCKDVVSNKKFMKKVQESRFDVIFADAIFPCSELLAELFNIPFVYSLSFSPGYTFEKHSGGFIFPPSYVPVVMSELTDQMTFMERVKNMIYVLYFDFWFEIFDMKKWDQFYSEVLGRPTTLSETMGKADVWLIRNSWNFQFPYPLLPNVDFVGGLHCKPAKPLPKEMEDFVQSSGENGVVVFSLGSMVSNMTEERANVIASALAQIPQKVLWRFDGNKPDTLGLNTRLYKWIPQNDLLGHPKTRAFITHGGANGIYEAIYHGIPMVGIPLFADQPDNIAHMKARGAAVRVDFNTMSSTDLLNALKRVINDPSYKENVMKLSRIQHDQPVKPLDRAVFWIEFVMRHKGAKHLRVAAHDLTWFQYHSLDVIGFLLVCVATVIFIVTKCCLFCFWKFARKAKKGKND
As to the kind of experiment: UGT2B7 azidothymidine glucuronidation inhibition in pooled human liver microsomes. The experiment is classed as in vitro ADME. Conditions: pooled human liver microsomes (H161), 100 μM azidothymidine, no inhibition at 1,000 μM of corydaline. The procedure:
as §1, with “μM).” for “μM). Reactions were initiated by addition of UDPGA, and incubations were carried out at 37 °C in a shaking water bath for 30 min.”
Glucuronides produced from UGT isoform-specific substrates were respectively determined by LC/MS/MS. […] Quantification was performed by SRM of the [M+H]^+ ion for trifluoperazine glucuronide and azidothymidine glucuronide or [M−H]^− for 17β-estradiol 3-glucuronide and propofol glucuronide and the related product ion for each metabolite. […]

Regarding `COc1cc2c(cc1OC)C1C(C)c3ccc(OC)c(OC)c3CN1CC2` (centres unmarked) [Corydaline, 2,3,9,10-tetramethoxy-13-methyl-5,8,13,13a-tetrahydro-6H-isoquino[3,2-a]isoquinoline], the Ki (as a rule, a measure of affinity in units of concentration, obtained from inhibition or displacement) at UGT1A9 (human liver microsomes, 10-30 μM propofol) was 37.3 ± 14.4 µM. In addition, the “inhibition mode, UGT1A9 propofol glucuronidation” value on UGT1A9 (mixed competitive-noncompetitive equation, nonlinear regression) is recorded as “competitive”. Further, on UGT1A9 (pooled human liver microsomes (H161), 10 μM propofol, mean ± SD, n = 3), 39.4 ± 6 µM corresponded to half-maximal inhibition (IC50). Moreover, the “IC50, UGT2B7 azidothymidine glucuronidation” value is “not inhibited” on UGT2B7 and “No inhibition *” on UGT2B7 (listed as corydaline).
